Patent US20220380347A1, “INHIBITORS OF CYSTEINE PROTEASES AND METHODS OF USE THEREOF” (Pardes Biosciences, Inc., priority 2020, published 2022)
Where two headings read alike, the source gives them in different places.

Legend:
[1] = molecular target: COVID-19 (nCoV-2019, SARS-CoV2) Mpro (Severe acute respiratory syndrome coronavirus 2, UniProt P0DTD1); experiment: COVID-19 (nCoV-2019, SARS-CoV2) Mpro enzymatic assay; type: biochemical; conditions: 25 nM Mpro, 25 μM substrate; read-out: COVID-19 Mpro IC50
HCov OC43 = experiment: HCoV OC43 cytopathic effect (CPE) assay, CellTiter Glo; type: cell-based, human coronavirus (HCov) OC43
229E Mpro = 229E Mpro (Human coronavirus 229E, UniProt P0C6X1); experiment: 229E Mpro enzymatic assay (standard methods, SARS-CoV2 Mpro assay given as exemplary); type: biochemical, human coronavirus (HCov) 229E
229E Mpro, sequence (P0C6X1 2966-3267): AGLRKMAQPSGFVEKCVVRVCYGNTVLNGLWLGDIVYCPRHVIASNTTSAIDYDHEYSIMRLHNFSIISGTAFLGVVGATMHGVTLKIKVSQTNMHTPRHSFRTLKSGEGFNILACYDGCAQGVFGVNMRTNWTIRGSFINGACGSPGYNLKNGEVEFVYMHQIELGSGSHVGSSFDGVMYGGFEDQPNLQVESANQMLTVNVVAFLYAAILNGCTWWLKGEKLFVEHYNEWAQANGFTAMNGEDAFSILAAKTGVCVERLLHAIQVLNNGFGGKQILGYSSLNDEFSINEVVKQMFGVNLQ
Summary of the method: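 IC50 for 229E Mpro by standard methods; exemplary SARS-CoV-2 protocol used C-His6-tagged Mpro from E. coli, 25 nM enzyme, 25 μM substrate (Km 13.5 μM), in Tris-HCl pH 7.3, NaCl, EDTA, TCEP, 0.1% BSA. Inhibition normalised to no-compound and full-effect controls; four-parameter fit.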

[2] = read-out: OC43 IC50 (uM) MEDIAN, median
[3] = Betacoronavirus 1, OC43, read-out: OC43 IC50 (uM) MEDIAN, median

| SMILES | IC50 [1] [nM] | IC50 (HCov OC43; [2]) [µM] | EC50 (229E Mpro; 229E Mpro EC50) [nM] | EC50 (229E Mpro; read-out: 229E Mpro EC50) [nM] | IC50 (HCov OC43; [3]) [µM] | IC50 (HCov OC43; read-out: OC43 IC50 (uM) MEDIAN, median, listed as 1161 Isomer 2) [µM] |
| --- | --- | --- | --- | --- | --- | --- |
| COc1ccc(NC(=O)C(c2cccnc2)N(C(=O)[C@H]2C[C@@H](OC)CN2C#N)c2ccc(S(F)(F)(F)(F)F)cc2)cn1 (single isomer, unassigned) [1180 Isomer 2] | < 2000 | < 2 | < 2000 |  |  |  |
| N#CN1C[C@H]2C[C@H]2[C@@H]1C(=O)N(c1ccc(S(F)(F)(F)(F)F)cc1)C(C(=O)NC1CCC(F)(F)CC1)c1cnccc1C(F)(F)F (single isomer, unassigned) [Compound 1318 Isomer 2] | < 2000 | < 2 |  | < 2000 |  |  |
| CO[C@@H]1C[C@H](C(=O)N(c2ccc(S(F)(F)(F)(F)F)cc2)C(C(=O)NC2CCC(F)(F)CC2)c2cncs2)N(C#N)C1 (stereo partly drawn) [Compound 1311, (2R,4R)-1-cyano-N-[2-[(4,4-difluorocyclohexyl)amino]-2-oxo-1-thiazol-5-yl-ethyl]-4-methoxy-N-[4-(pentafluoro-λ^6-sulfanyl)phenyl]pyrrolidine-2-carboxamide] | < 2000 |  | < 2000 |  | < 2 |  |
| CC(C)(C)c1ccc(N(C(=O)[C@H]2[C@H](F)CCN2C#N)C(C(=O)NC2CCC(F)(F)CC2)c2cncc(F)c2)cc1 (single isomer, unassigned) [1212 Isomer 1] | < 2000 |  | < 2000 |  | < 2 |  |
| Cc1ccnc(C)c1C(C(=O)NC1CCC(F)(F)CC1)N(C(=O)[C@H]1C[C@@](C)(O)CN1C#N)c1ccc(S(F)(F)(F)(F)F)cc1 (stereo partly drawn) [Compound 997c, (2R,4R)-1-cyano-N-[2-[(4,4-difluorocyclohexyl)amino]-1-(2,4-dimethyl-3-pyridyl)-2-oxo-ethyl]-4-hydroxy-4-methyl-N-[4-(pentafluoro-λ^6-sulfanyl)phenyl]pyrrolidine-2-carboxamide] | 10000 to 30000 |  | < 2000 |  | 2 to 10 |  |
| C[C@H]1CN(C#N)[C@H]1C(=O)N(c1ccc(S(F)(F)(F)(F)F)cc1)C(C(=O)NC1CCC(F)(F)CC1)c1cncc(F)c1 (single isomer, unassigned) [1210 Isomer 1] | 10000 to 30000 | 10 to 30 | < 2000 |  |  |  |
| CO[C@@H]1C[C@H](C(=O)N(c2ccc(S(F)(F)(F)(F)F)cc2)C(C(=O)NCCc2cccc(F)c2)c2cccnc2)N(C#N)C1 (single isomer, unassigned) [1197 Isomer 1] | < 2000 |  | < 2000 |  | < 2 |  |
| CO[C@@H]1C[C@H](C(=O)N(c2ccc(C(C)(C)C)cc2)C(C)(C(=O)NC2CCCCC2)c2cccnc2)N(C#N)C1 (single isomer, unassigned) [1230 Isomer 2] | < 2000 | < 2 | < 2000 |  |  |  |
| COc1ccc(NC(=O)C(c2cccnc2)N(C(=O)[C@H]2C[C@@H](OC)CN2C#N)c2ccc(S(F)(F)(F)(F)F)cc2)cn1 (single isomer, unassigned) [1180 Isomer 1] | 2000 to 10000 |  | 2000 to 10000 |  | 2 to 10 |  |
| CC(C)(C)c1ccc(N(C(=O)[C@H]2C[C@@H](O)CN2C#N)C(C(=O)NCc2cccnc2)c2cccnc2)cc1 (single isomer, unassigned) [643 Isomer 2] | 2000 to 10000 | 2 to 10 |  | < 2000 |  |  |
| CN1C[C@H](C(=O)N(c2ccc(S(F)(F)(F)(F)F)cc2)C(C(=O)NC2CCOCC2)c2cccnc2)N(C#N)CC1=O (stereo partly drawn) [Compound 813] | < 2000 |  | < 2000 |  | < 2 |  |
| CO[C@@H]1C[C@H](C(=O)N(c2ccc(C3CC3)cc2F)C(C(=O)NC2CCC(F)(F)CC2)c2cnccc2C(F)(F)F)N(C#N)C1 (single isomer, unassigned) [Compound 1309 Isomer 2] | 2000 to 10000 | 2 to 10 |  | < 2000 |  |  |
| N#CN1CCC(F)(F)C1C(=O)N(c1ccc(S(F)(F)(F)(F)F)cc1)C(C(=O)NC1CCOCC1)c1cncc(F)c1 (stereo not drawn) [Compound 1274, 1-cyano-3,3-difluoro-N-[1-(5-fluoro-3-pyridyl)-2-oxo-2-(tetrahydropyran-4-ylamino)ethyl]-N-[4-(pentafluoro-λ^6-sulfanyl)phenyl]pyrrolidine-2-carboxamide] | < 2000 |  | < 2000 |  | < 2 |  |
| CO[C@@H]1C[C@H](C(=O)N(c2ccc(C(C)(C)C)cc2F)C(C(=O)NC2CCC(F)(F)CC2)c2cncc(F)c2)N(C#N)C1 (single isomer, unassigned) [1207 Isomer 2] | > 30000 | > 30 | > 30000 |  |  |  |
| N#CN1C[C@H](F)C[C@@H]1C(=O)N(c1ccc(S(F)(F)(F)(F)F)cc1)C(C(=O)NC1CCC(F)(F)CC1)c1cncc(F)c1 (single isomer, unassigned) [Compound 1098 Isomer 2] | < 2000 | < 2 |  | < 2000 |  |  |
| CC(C)(C)c1ccc(N(C(=O)C2NCC[C@H]2F)C(C(=O)NC2CCCCC2)c2cccnc2)cc1 (stereo partly drawn) [Compound 853] | 2000 to 10000 |  | 2000 to 10000 |  | 2 to 10 |  |
| N#CN1C[C@H](O)C[C@@H]1C(=O)N(c1ccc(C2CC2)c(F)c1)C(C(=O)NC1CCCCC1)c1cccnc1 (single isomer, unassigned) [Compound 767 Isomer 2] | 2000 to 10000 | 2 to 10 |  | < 2000 |  |  |
| N#CN1C[C@H]2C[C@H]2[C@@H]1C(=O)N(c1ccc(S(F)(F)(F)(F)F)cc1)C(C(=O)NC1CCC(F)(F)CC1)c1cncc(F)c1 (single isomer, unassigned) [Compound 1095b Isomer 1] | < 2000 |  | < 2000 |  | < 2 |  |
| CN1CC(C(=O)N(c2ccc(S(F)(F)(F)(F)F)cc2)C(C(=O)NC2CCC(F)(F)CC2)c2cncc(F)c2)N(C#N)CC1=O (stereo not drawn) [Compound 1161, 1-cyano-N-[2-[(4,4-difluorocyclohexyl)amino]-1-(5-fluoro-3-pyridyl)-2-oxo-ethyl]-4-methyl-5-oxo-N-[4-(pentafluoro-λ^6-sulfanyl)phenyl]piperazine-2-carboxamide] | < 2000 |  | < 2000 |  | < 2 |  |
| CN1CC(C(=O)N(c2ccc(S(F)(F)(F)(F)F)cc2)C(C(=O)NC2CCC(F)(F)CC2)c2cncc(F)c2)N(C#N)CC1=O (single isomer, unassigned) [Compound 1161 Isomer 2, 1-cyano-N-[2-[(4,4-difluorocyclohexyl)amino]-1-(5-fluoro-3-pyridyl)-2-oxo-ethyl]-4-methyl-5-oxo-N-[4-(pentafluoro-λ6-sulfanyl)phenyl]piperazine-2-carboxamide] | 2000 to 10000 |  | 2000 to 10000 |  |  | 2 to 10 |
| CC(C)(C)c1ccc(N(C(=O)[C@H]2CCCN2C#N)C(C(=O)N2CC(O)C2)c2cccnc2)cc1 (stereo partly drawn) [Compound 950, (2R)—N-(4-(tert-butyl)phenyl)-1-cyano-N-(2-(3-hydroxyazetidin-1-yl)-2-oxo-1-(pyridin-3-yl)ethyl)pyrrolidine-2-carboxamide] | 2000 to 10000 |  | 2000 to 10000 |  | 10 to 30 |  |
| CO[C@@H]1C[C@H](C(=O)N(c2ccc(S(F)(F)(F)(F)F)cc2)C(C(=O)N2CCC3(COC3)C2)c2cccnc2)N(C#N)C1 (stereo partly drawn) [Compound 1174, (2R,4R)-1-cyano-4-methoxy-N-[2-(2-oxa-7-azaspiro[3.4]octan-7-yl)-2-oxo-1-(3-pyridyl)ethyl]-N-[4-(pentafluoro-λ^6-sulfanyl)phenyl]pyrrolidine-2-carboxamide] | 2000 to 10000 |  | < 2000 |  | < 2 |  |
| CO[C@@H]1C[C@H](C(=O)N(c2ccc(S(F)(F)(F)(F)F)cc2)C(C(=O)NCC2(C)COC2)c2cccnc2)N(C#N)C1 (single isomer, unassigned) [1176 Isomer 2] | 10000 to 30000 | 2 to 10 |  | < 2000 |  |  |
| N#CN1C[C@@H](F)C[C@@H]1C(=O)N(c1ccc(S(F)(F)(F)(F)F)cc1)C(C(=O)NC1CCC(F)(F)CC1)c1cncc(F)c1 (single isomer, unassigned) [Compound 1099 Isomer 2] | < 2000 | 2 to 10 |  | < 2000 |  |  |
| CO[C@@H]1C[C@H](C(=O)N(c2ccc(C(C)(C)C)cc2)C(C)(C(=O)NC2CCC(F)(F)CC2)c2cnccn2)N(C#N)C1 (single isomer, unassigned) [1198 Isomer 1] | 10000 to 30000 |  | 2000 to 10000 |  | 2 to 10 |  |
| N#CC1(C(=O)N(c2ccc(S(F)(F)(F)(F)F)cc2)C(C(=O)NC2CCC(F)(F)CC2)c2cncc(F)c2)CC1 (single isomer, unassigned) [1289 Isomer 1, 1-cyano-N-[2-[(4,4-difluorocyclohexyl)amino]-1-(5-fluoro-3-pyridyl)-2-oxo-ethyl]-N-[4-(pentafluoro-λ^6-sulfanyl)phenyl]cyclopropanecarboxamide] | > 30000 |  | > 30000 |  | > 30 |  |
| CO[C@@H]1C[C@H](C(=O)N(c2ccc(S(F)(F)(F)(F)F)cc2)C(C(=O)N(C)CC(=O)NC2CC2)c2cccnc2)N(C#N)C1 (single isomer, unassigned) [1122 Isomer 2] | 10000 to 30000 | 2 to 10 |  | < 2000 |  |  |
| N#CC1(C(=O)N(c2ccc(S(F)(F)(F)(F)F)cc2)C(C(=O)NC2CCC(F)(F)CC2)c2cncc(F)c2)CC1 (single isomer, unassigned) [1289 Isomer 2, 1-cyano-N-[2-[(4,4-difluorocyclohexyl)amino]-1-(5-fluoro-3-pyridyl)-2-oxo-ethyl]-N-[4-(pentafluoro-λ^6-sulfanyl)phenyl]cyclopropanecarboxamide] | > 30000 | > 30 |  | > 30000 |  |  |
